From US11008335B2, “Positive allosteric modulators of the muscarinic acetylcholine receptor M4” (Vanderbilt University, priority 2016, dated 2021) come the findings set out here.

SMILES strings stand for the structures. Counter-ions that a name gives are not always drawn.

The target of this experiment is T1, Human M4 (Homo sapiens, UniProt P08173).
T1 sequence (P08173 1-479): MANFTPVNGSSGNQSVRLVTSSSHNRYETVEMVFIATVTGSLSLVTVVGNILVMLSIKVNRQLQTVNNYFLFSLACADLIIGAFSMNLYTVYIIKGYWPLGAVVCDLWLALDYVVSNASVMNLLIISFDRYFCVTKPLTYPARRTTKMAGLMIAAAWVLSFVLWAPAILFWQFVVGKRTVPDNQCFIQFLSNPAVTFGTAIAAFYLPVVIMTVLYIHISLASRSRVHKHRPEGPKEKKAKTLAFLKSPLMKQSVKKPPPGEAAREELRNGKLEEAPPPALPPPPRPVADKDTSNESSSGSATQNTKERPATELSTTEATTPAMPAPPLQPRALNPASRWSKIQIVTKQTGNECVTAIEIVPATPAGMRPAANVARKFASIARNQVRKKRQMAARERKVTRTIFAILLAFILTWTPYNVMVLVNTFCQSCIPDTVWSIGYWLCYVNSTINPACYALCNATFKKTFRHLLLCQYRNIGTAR
Briefly: mAChR M4 cell-based functional assay (calcium flux, potentiation of EC20 acetylcholine response). Also on record: Emax: dose or concentration left out as unconfirmed. Conditions: for Emax: CHO-K1. On the technique in general: A change in cytosolic calcium serves as a functional read-out for many receptors and channels.

Usually EC50 stands for the midpoint of the concentration-response curve. A word on the Emax: it is the greatest response seen or fitted, relative to the assay's reference. `Cc1nnc2sc3c(NCc4ccc(-n5cccn5)cc4)nncc3c2c1C` [Compound 18, N-(4-(1H-pyrazol-1-yl)benzyl)-3,4-dimethylthieno[2,3-c:4,5-d′]dipyridazin-8-amine]: the EC50 amounted to 0.56 µM and the maximum response (Emax) turned out to be 72.7%.
For `Cc1nc2sc3c(NCc4ccc(OC(F)F)cc4)nncc3c2c(C)c1Cl` [Compound 4, 3-chloro-N-(4-(difluoromethoxy)benzyl)-2,4-dimethylpyrido[3′,2′:4,5]thieno[2,3-d]pyridazin-8-amine], in that order: 0.54 µM and 41%.
For `[2H]C([2H])(Nc1nncc2c1sc1nnc(C)c(C)c12)c1ccc(C(C)(C)O)cc1` [Compound 13, 2-(4-(((3,4-dimethylthieno[2,3-c:4,5-d′]dipyridazin-8-yl)amino)methyl-d2)phenyl)propan-2-ol], the EC50 amounted to 0.727 µM and the Emax amounted to 91.9%.
As for `Cc1nnc2sc3c(N4CCCC4)nncc3c2c1C` [Compound 15, 3,4-dimethyl-8-(pyrrolidin-1-yl)thieno[2,3-c:4,5-d′]dipyridazine], the maximal response (Emax) worked out at 95.8%.
Take `Cc1nc2sc3c(NC4CC4)nncc3c2c(C)c1Cl` [Compound 11, 3-chloro-N-cyclopropyl-2,4-dimethylpyrido[3′,2′:4,5]thieno[2,3-d]pyridazin-8-amine hydrochloride]: the EC50 turned out to be 0.081 µM and the maximal response (Emax) was found to be 100%.
Taken in the same sequence, the figures for `Cc1nc2sc3c(N4CC5CC5C4)nncc3c2c(C)c1Cl` (stereo not drawn) [Compound 3, 8-(3-azabicyclo[3.1.0]hexan-3-yl)-3-chloro-2,4-dimethylpyrido[3′,2′:4,5]thieno[2,3-d]pyridazine] were 0.48 µM and 80.4%.
In the case of `COc1ccc(CNc2nncc3c2sc2nnc(C)c(C)c23)cc1F` [Compound 17, N-(3-fluoro-4-methoxybenzyl)-3,4-dimethylthieno[2,3-c:4,5-d′]dipyridazin-8-amine], the Emax turned out to be 86.7%.
Still for that read-out and setting: the value for `Cc1nnc2sc3c(NCc4ccc(C(C)(C)O)cc4)nncc3c2c1C` [Compound 12, 2-(4-(((3,4-dimethylthieno[2,3-c:4,5-d′]dipyridazin-8-yl)amino)methyl)phenyl)propan-2-ol] was 99.4%.
For the compound `COc1ccc(CNc2nncc3c2sc2nc(C)c(Cl)c(C)c23)cc1F` [Compound 5, 3-chloro-N-(3-fluoro-4-methoxybenzyl)-2,4-dimethylpyrido[3′,2′:4,5]thieno[2,3-d]pyridazin-8-amine], the EC50 came out at 1.31 µM and the Emax is 69.4%.
For `Cc1nnc2sc3c(N4CC[C@H](Oc5cccnc5)C4)nncc3c2c1C` [Compound 20, (S)-3,4-dimethyl-8-(3-(pyridin-3-yloxy)pyrrolidin-1-yl)thieno[2,3-c:4,5-d′]pyridazine], in that order: 0.214 µM and 70.3%.
For `Cc1nc2sc3c(N4CCCC4)nnc(C)c3c2c(C)c1Cl` [Compound 21, 3-Chloro-2,4,5-trimethyl-8-(pyrrolidin-1-yl)pyrido[3′,2′:4,5]thieno[2,3-d]pyridazine], the concentration giving a half-maximal response (EC50) came to 1.63 µM and the Emax amounted to 50.4%.
For `Cc1nnc2sc3c(NCc4ccc(C(C)(C)CO)cc4F)nncc3c2c1C` [Compound 16, 2-(4-(((3,4-dimethylthieno[2,3-c:4,5-d′]dipyridazin-8-yl)amino)methyl)-3-fluorophenyl)-2-methylpropan-1-ol], in that order: 0.779 µM and 77.4%.
Taken in the same sequence, the figures for `Cc1nnc2sc3c(N4CC(Oc5cccnc5)C4)nncc3c2c1C` [Compound 19, 3,4-dimethyl-8-(3-(pyridin-3-yloxy)azetidin-1-yl)thieno[2,3-c:4,5-d′]dipyridazine] were 2.11 µM and 51.3%.
For the compound `COCCCNc1nncc2c1sc1nc(C)c(Cl)c(C)c12` [Compound 7, 3-chloro-N-(3-methoxypropyl)-2,4-dimethylpyrido[3′,2′:4,5]thieno[2,3-d]pyridazin-8-amine hydrochloride], the 50% effective concentration (EC50) is 0.34 µM and the maximal response (Emax) was 70%.
For the compound `[2H]C([2H])([2H])C(O)(c1ccc(CNc2nncc3c2sc2nnc(C)c(C)c23)cc1)C([2H])([2H])[2H]` [Compound 14, 2-(4-(((3,4-dimethylthieno[2,3-c:4,5-d′]dipyridazin-8-yl)amino)methyl)phenyl)propan-1,1,1,3,3,3-d6-2-ol], the 50% effective concentration (EC50) was determined as 0.746 µM and the Emax was 89.4%.
